{"source": "patent US9950062B2", "about": "“Compounds and compositions as TLR activity modulators” (priority 2009, dated 2018)", "key": {"[1]": {"assay": "Muscle levels 24 hours after intramuscular injection", "details": "24 hours after intramuscular injection (100 μg) with protein antigens, Balb/C mice"}, "five different strains": {"tested_on": "five different strains", "assay": "Strain coverage of sera after immunization with modified 5CVMB", "format": "in vivo, MenB", "details": "compound pre-adsorbed to aluminium hydroxide", "excerpt": "2010 claiming priority from U.S. Ser. No. 61/237,576 (SEQ ID NO: 126 therein)."}, "[2]": {"assay": "Adsorption to aluminum hydroxide, LC-MS/MS of supernatant", "details": "10 mM histidine buffer pH 6.8; final compound concentration 0.1 mg/mL; 37° C. for 5 hours; 100% minus % unbound", "procedure": "The resulting solution was diluted 10-fold with blank histidine buffer to a final compound concentration of 0.1 mg/mL. Diluted solutions were incubated at 37° C. for 5 hours. The samples were centrifuged at 14,000 rpm for 10 minutes to pellet the insoluble. The supernatant (along with an internal standard) was then evaluated by LC-MS/MS using a ballistic gradient (from 5% CH3CN-0.5% formic acid to 95% CH3CN-1.0% formic acid in 3.5 minutes) on a Waters Atlantis dC18 (50 mm×2.1 mm) column at room temperature against a calibration curve prepared at known compound concentrations ranging from 0.005 to 50 μM. The concentration in the supernatant was calculated as % unbound to alum compared to control; the % bound to alum was calculated as 100% minus % unbound."}}}
{"smiles": "Cc1cc(OCCOCCOCCP(=O)(O)O)ccc1CCc1cnc2c(N)nc3cc(CCC(=O)O)ccc3c2c1", "note": "[Compound 20, 3-(5-amino-2-(2-methyl-4-(2-(2-(2-phosphonoethoxy)ethoxy)ethoxy)phenethyl)benzo[f][1,7]naphthyridin-8-yl)propanoic acid]", "values": [{"measurement": "muscle level of compound", "setting": "[1]; with aluminium hydroxide adjuvant", "value": "readily detected"}, {"measurement": "muscle level of compound", "setting": "[1]; without aluminium hydroxide adjuvant", "value": "undetectable"}, {"measurement": "strain coverage compared to aluminium hydroxide alone", "setting": "five different strains", "value": "improves the strain coverage"}, {"measurement": "% bound to alum", "setting": "[2]", "value": 97.0, "unit": "%"}]}
